The text below walks through data of US20060211081A1, “Sec14 as an antifungal target” (priority 2002, published 2006).

Molecules are shown by their SMILES.

The subject of the test is C. albicans conditional mutants (SEC14 gene under tetracycline repressible promoter). Put plainly: Murine model of systemic infection with C. albicans conditional mutants, kidney burdens. It counts as in vivo, BALB/c mice. Particulars: +DOX group (2 mg/ml in 5% sucrose drinking water), at the start of the study and at day 28; 1×10^6 CFU/mouse i.v. As to the method:
To further validate the essential nature of the SEC14 gene, the conditional mutants of C. albicans strains (as described in Example 4, section 4.1), wherein the SEC14 gene is under the control of a tetracycline repressible promoter, may be tested to determine whether they are attenuated in an immuno-competent murine model of infection (Ghannoum, et al, 1995) as follows:
Initially the organisms were grown in the absence of DOX, since under these conditions they would express the SEC14 gene. These organisms were then used to inoculate two groups of 12 of mice. One group wss treated with DOX, in which expression of the SEC14 gene was repressed, and the second group of mice was treated with water (control) wherein the gene continued to be expressed. The mice used were single sex BALB/c mice, Harlan, 4 weeks old and weighing between 19-22 g.
Infective doses of C. albicans were injected into the tail vein. The inocula were from saline-washed fresh stationary phase cultures grown in NGY medium [0.1% neopeptone, 0.4% glucose, 0.1% yeast extract] for 18-24 h at 30° C. […]
Animals were fed food and water ad libitum throughout the course of experiment. […] Differences between the effects of C. albicans with the SEC14 gene active (−DOX) or repressed (+DOX) in vivo were monitored by mouse survival, kidney burdens of viable fungi, and changes in body weight relative to baseline. […]

`C[C@H]1c2cccc(O)c2C(=O)C2=C(O)[C@]3(O)C(=O)C(C(N)=O)=C(O)[C@@H](N(C)C)[C@@H]3[C@@H](O)[C@@H]21` [doxycycline]: the “Kidney counts (colony forming unit counts per gram of kidney tissue)” value was less than 200 cfu/g.
